Experimental data reported in a melting point compilation (Tetko et al.; mined from patent text by program, amines drawn as free bases though some values may be those of a salt).

SMILES	melting point
CC(=NC(C#N)=C(N)C#N)c1ccc2ccccc2c1	188 to 189 °C
CC(C)(C)OC(=O)N1CC[C@@H]2Nc3cccc(Br)c3[C@@H]2CC1 (relative stereo)	124 °C
CCCn1ncc2c(=O)[nH]c(-c3cc(C(=O)N4CCN(C)CC4)ccc3OCC)nc21	124 to 127 °C
O=C(Cc1c[nH]c2ccccc12)OCc1ccccc1	71 to 72 °C
CC(C(=O)NCCO)c1ccc(C(=O)c2cccs2)cc1 (configuration not stated)	87.1 °C
CS(=O)(=O)c1cc(-c2nc(=O)c3ccccc3s2)ccn1	190 to 192 °C
Cc1c(CO)ncn1C	161 to 163 °C
FC(F)(F)Oc1ccc(-c2coc3ccc(-c4nnc(S)o4)cc23)cc1	197 to 198 °C
Cc1cc2nc(NC3=NCCN3)[nH]c2cc1C	266 °C
CCC[C@H]1C(=O)N[C@H]2CCN[C@@H]21 (relative stereo)	97 to 100 °C
CCCCCCCCCCCCCCCCCC(=O)c1ccc(C(=O)O)c(Cl)c1	96 to 102 °C
CCCCOCn1c(-c2ccc(Cl)cc2)c(C#N)c(Br)c1C(F)(F)F	52 to 53.5 °C
Cc1ccc2[nH]c3c(c2c1)CCNC3(C(=O)OC(C)(C)C)C1(NC(=O)OCc2ccccc2)CCC1 (configuration not stated)	219 to 220 °C
CN1C(=O)N(C)C(Cc2c[nH]c3ccccc23)C1CCc1cc(C(F)(F)F)cc(C(F)(F)F)c1 (configuration not stated)	202 to 205 °C
CC(=O)CCc1ccc(C(=O)Nc2ccc3cc(CN4CCCC4)cnc3c2C)cc1	106 to 108 °C
O=Cc1ccc(-c2cc3c4c(c2)cc(F)n4C(=O)CNC3)cc1	212 to 214 °C
O=C(NCCO)/C(=C/c1ccc(OC(F)(F)F)cc1)NC(=O)c1ccc(OCC2CCC2)cc1	168 to 170 °C
CC(C)(CO)NC(=O)c1nn(-c2ccc(Cl)cc2F)c2c1C1CCC2C1 (configuration not stated)	158 to 160 °C
COc1cc(CCCCCC2OCCO2)ccc1OCc1nc(-c2ccccc2)oc1C	81 to 82 °C
CNc1nc(OC)ccc1Nc1nc(Nc2cc3c(cc2OC)CCN(CC(=O)N(C)C)CC3)ncc1Cl	191 to 194 °C
ON=C(c1ccc(Cl)cc1)C1(n2cncn2)CC1	186 to 218 °C
CCCCCCCCCCCCCCc1onc(C(=O)OC)c1O	92 °C
COc1cc(C#N)ccc1-c1cc(-c2cccc(C#N)c2)on1	202 to 204 °C
CCCCCCCCCCCCCCCCCCNC(=O)OCC(COC)CN(C(C)=O)S(=O)(=O)CCCI (configuration not stated)	71 to 72 °C
CCOc1cc(OCc2cn(-c3ccc(C(F)(F)F)cn3)nc2C)ccc1CCC(=O)O	151 to 152 °C
COC(=S)NC1(N=NC(C)(C)C)CCCCC1	79 to 82 °C

SMILES	melting point
CC(=O)S[C@@H](CCc1ccccc1C)C(=O)O	47 to 48 °C
CN1Cc2c(Cl)cc(F)c(-n3c(=O)cc(C(F)(F)F)n(C)c3=O)c2O1	218 to 219 °C
Nc1nc2c(c(Nc3cccc(Cl)c3)n1)-c1ccccc1C2	224 to 225 °C
COc1cccc(-c2nc(-c3ccccc3C)n(C(=O)Nc3ccccc3)n2)c1	123 to 125 °C
CCC(=O)OC(CC)c1ccc(Cl)c2nc3n(c12)CCCN3c1ccc(Cl)cc1Cl (configuration not stated)	133 to 135 °C
CCOP(OCC)c1ccccc1P(c1cccc2ccccc12)c1cccc2ccccc12	94 to 95 °C
O=C1CCC(C(=O)O)(c2ccccc2)CC1	136 to 140 °C
Cc1ccc(CCc2cc3c(s2)-n2c(C)nnc2CN=C3c2ccccc2Cl)cc1	160 to 162 °C
Nc1ccccc1Oc1ccc2ncccc2c1	115 to 117 °C
Cc1ccc(C2=C(c3ccc(S(N)(=O)=O)cc3)CCC2)cn1	108 to 110 °C
CCCCCCCCCCCCOc1cccc2c(OCCCCCCCCCCCC)cccc12	92 to 93 °C
CCc1c[nH]c2c3c(ccc12)OCC3	91 to 92.5 °C
CCCC(=O)c1cnc2c(C(=O)OC)cccc2c1Nc1ccccc1C	113 to 115 °C
Cc1ccc(Nc2nc(=O)c3cccnc3s2)cc1	208 to 209 °C
COc1ccc(CNn2c(=O)ccc3ccc(N4CCC[C@H]4CO)nc32)cc1Cl	131 to 134 °C
COc1ccc(/C=C/c2nc3ncccc3c(=O)o2)cc1OC	228 to 231 °C
CC(c1ccccc1)N1C(=O)NCc2c(-c3ccccc3)cccc21 (configuration not stated)	136 to 138 °C
CCOC(=O)C(C(=O)OCC)c1n[nH]c(C)c1[N+](=O)[O-]	100 to 102 °C
CSc1nc(F)cc2nnc(SCc3ccccc3)n12	74 to 77 °C
CCOC(=O)c1c(NCCCN(C)C)c2ccc(C)nc2n(CC)c1=O	75 °C
COC[C@@H](NC(C)=O)C(=O)NCc1ccc(I)cc1	159 to 160 °C
N#Cc1cccc(C2=Nc3ccc(C#CC4=CCCCC4)cc3NC(=O)C2)c1	228 °C
COC(=O)CCCCC(O)c1ccc(CCc2ccccc2)cc1 (configuration not stated)	56 to 58 °C
O=C(NCCCc1ccncc1)N(CCC12CC3CC(CC(C3)C1)C2)Cc1ccccc1	130 to 135 °C
CN1Cc2ccccc2C(c2ccccc2)N=C1Cc1ccc(NS(C)(=O)=O)cc1 (configuration not stated)	182 to 185 °C
Cc1ccccc1-c1c(NC(=O)Nc2ccc(F)cc2F)c(=O)oc2c(F)cc(F)cc12	220 to 221 °C
